Assay results from ChEMBL document CHEMBL1201862, “PubChem BioAssay data set” (2004).
Calls of active or inactive are those of the source.

Legend:
[1] = cells
[2] = target: Major prion protein (Homo sapiens, UniProt P04156); type: functional, cell-based
[3] = target: Beta-galactosidase (Escherichia coli, UniProt Q8VNN2); assay: Dose response counterscreen for EBI2 assay utilizing the enzyme, b-galactosidase.; type: functional
[4] = viability loss in THP-1 monocytes – THP-1 cells, cytotoxicity control for Vif-APOBEC3G degradation inhibitor project, dose response (AID 1117359); type: functional; conditions: THP-1
[5] = rescue of ΔF508 CFTR function, airway epithelium – human bronchial epithelial cells, plate reader, cherry-pick, two tests, dose response (AID 743267); type: functional, cell-based
[6] = target: T1, Rac GTPase-activating protein 1 (Homo sapiens, UniProt Q9H0H5); assay: blockers of MgcRacGAP-driven Rac1 GTP hydrolysis – biochemical, ADP Hunter fluorescence, primary and confirmatory, confirmation (AID 624330); type: functional
T1 sequence (Q9H0H5 whole entry): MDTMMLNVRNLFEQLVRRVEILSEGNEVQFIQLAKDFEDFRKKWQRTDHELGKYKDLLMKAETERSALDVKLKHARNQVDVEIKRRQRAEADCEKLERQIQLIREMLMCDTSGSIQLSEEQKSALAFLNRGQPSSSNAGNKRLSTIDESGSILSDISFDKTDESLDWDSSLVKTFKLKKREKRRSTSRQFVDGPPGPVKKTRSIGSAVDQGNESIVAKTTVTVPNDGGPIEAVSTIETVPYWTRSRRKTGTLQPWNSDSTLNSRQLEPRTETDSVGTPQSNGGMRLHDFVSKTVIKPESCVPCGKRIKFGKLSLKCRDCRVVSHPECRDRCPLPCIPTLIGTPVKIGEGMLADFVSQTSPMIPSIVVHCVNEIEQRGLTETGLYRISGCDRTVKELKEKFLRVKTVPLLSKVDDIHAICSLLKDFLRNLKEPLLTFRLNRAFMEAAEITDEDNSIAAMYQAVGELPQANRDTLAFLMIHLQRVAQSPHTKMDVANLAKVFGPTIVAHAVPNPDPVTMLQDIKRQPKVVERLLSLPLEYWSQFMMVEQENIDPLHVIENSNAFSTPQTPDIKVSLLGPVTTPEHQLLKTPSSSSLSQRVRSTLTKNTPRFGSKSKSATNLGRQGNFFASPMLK

[7] = viability loss in A549 lung cancer cells – cell-based, CellTiter-Glo luminescence, dry powder, set 3, cytotoxicity control, dose response (AID 743146); type: functional
[8] = HEK293T viability loss – cell-based, ATP luminescence, dry powder, Set6, cytotoxicity control, dose response (AID 743142); type: functional; conditions: HEK293
[9] = MITF Orthogonal Assay: SK-MEL-5 CTG Assay Measured in Cell-Based System Using Plate Reader - 2084-02_Inhibitor_Dose_DryPowder_Activity_Set7.; type: functional
[10] = MITF: Counter assay: A375 proliferation Measured in Cell-Based System Using Plate Reader - 2084-03_Inhibitor_Dose_DryPowder_Activity_Set8.; type: functional; conditions: A-375
[11] = inhibitors of TRPM1-promoter reporter in SK-MEL-5 – cell-based, luciferase, dry powder, set 8, MITF inhibitor project, dose response (AID 624430); type: functional
[12] = target: Melanocortin receptor 4 (Homo sapiens, UniProt P32245); type: functional, cell-based;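 note: Cell-based assay with luminescence read-out, confirmatory dose-response testing for agonist activity of biased ligands at MC4R; human U2OS cells with tagged receptor and beta-arrestin; potency of agonists that increase receptor coupling to beta-arrestin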
[13] = DRD fibroblast viability loss – cell-based, non-viral oncogenic, luminescence, dose response (AID 1934); type: functional; conditions: Homo sapiens
[14] = THP-1 cell cytotoxicity, dose response, cytotoxicity control for non-replicating M. tuberculosis project (AID 489025); type: functional
[15] = system: Streptococcus sp. 'group A'; assay: Streptococcus pyogenes SK(-)GAS viability under kanamycin – luminescence, BacTiterGlo, confirmation, counter-screen for streptokinase expression inhibitor project, dose response (AID 1900); type: functional, organism-based
[16] = system: INS1; assay: INS-1E survival protection against cytokine death – cell-based, luminescence, retest, dose response (AID 449756); type: functional; conditions: Rattus norvegicus;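 note: cell death triggered by IL-1 beta plus TNF-alpha plus IFN-gamma mixture; protective hits raise ATP signal compared with cytokine alone wells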
[17] = target: SWI/SNF-related matrix-associated actin-dependent regulator of chromatin subfamily A member 2 (Homo sapiens, UniProt P51531); assay: Luminescence-based cell-based high throughput dose response assay to identify activators of the function of SWI/SNF related, matrix associated, actin dependent regulator of chromatin, subfamily a, member 2 (SMARCA2, BRM).; type: functional
[18] = target: Dual specificity tyrosine-phosphorylation-regulated kinase 1A (Rattus norvegicus, UniProt Q63470); type: biochemical, Homo sapiens
[19] = target: Induced myeloid leukemia cell differentiation protein Mcl-1 (Homo sapiens, UniProt Q07820); type: functional
[20] = target: T2, DNA repair protein RAD52 homolog (Homo sapiens, UniProt P43351); type: functional, biochemical
T2 sequence (P43351 whole entry): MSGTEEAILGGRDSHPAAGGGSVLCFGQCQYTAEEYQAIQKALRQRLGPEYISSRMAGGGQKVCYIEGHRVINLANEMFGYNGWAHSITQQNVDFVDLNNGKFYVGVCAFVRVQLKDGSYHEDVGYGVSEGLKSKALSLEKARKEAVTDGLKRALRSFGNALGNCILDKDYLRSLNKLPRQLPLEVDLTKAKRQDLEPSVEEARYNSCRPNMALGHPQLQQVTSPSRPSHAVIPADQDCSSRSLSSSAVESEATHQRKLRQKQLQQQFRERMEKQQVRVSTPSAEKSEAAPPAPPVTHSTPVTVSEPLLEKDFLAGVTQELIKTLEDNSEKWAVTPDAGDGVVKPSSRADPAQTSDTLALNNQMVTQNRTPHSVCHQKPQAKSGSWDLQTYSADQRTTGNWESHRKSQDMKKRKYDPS

[21] = system: SN12K1; assay: cells; type: functional; conditions: Homo sapiens
[22] = Counterscreen for activators of the function of SWI/SNF related, matrix associated, actin dependent regulator of chromatin, subfamily a, member 2 (SMARCA2, BRM): Luminescence-based cell-based high throughput dose response assay to identify non-selective compounds using the VP16 reporter assay.; type: functional
[23] = HepG2 cell cytotoxicity, dose response, cytotoxicity control for non-replicating M. tuberculosis project (AID 489018); type: functional; conditions: Mycobacterium tuberculosis
[24] = system: HEK293; assay: cells; conditions: Homo sapiens
[25] = target: T3, Streptokinase A (Streptococcus pyogenes serotype M1, UniProt P10520); assay: viability-normalized secreted streptokinase activity reduction – plasminogen activation absorbance, OD405, dose response (AID 1914); type: functional, Streptococcus pyogenes M1 GAS;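 note: secreted streptokinase activity via plasminogen activation per viability signal from cell pellet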
T3 sequence (P10520 whole entry): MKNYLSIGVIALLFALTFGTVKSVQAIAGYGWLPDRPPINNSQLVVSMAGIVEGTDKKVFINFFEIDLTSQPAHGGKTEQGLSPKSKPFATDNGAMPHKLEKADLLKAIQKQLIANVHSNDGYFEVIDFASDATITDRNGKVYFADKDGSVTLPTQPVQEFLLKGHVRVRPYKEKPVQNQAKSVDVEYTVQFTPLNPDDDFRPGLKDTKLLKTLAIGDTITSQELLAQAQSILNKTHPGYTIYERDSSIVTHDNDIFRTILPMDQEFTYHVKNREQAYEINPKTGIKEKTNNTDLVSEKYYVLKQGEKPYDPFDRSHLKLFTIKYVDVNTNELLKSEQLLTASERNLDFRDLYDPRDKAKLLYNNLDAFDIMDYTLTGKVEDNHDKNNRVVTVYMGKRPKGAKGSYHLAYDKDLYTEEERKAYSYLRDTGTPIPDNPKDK

[26] = fluconazole-exposed Candida albicans growth modulators – fluorescence, retest, confirmation (AID 2467); type: functional, cell-based
[27] = system: BJ; assay: BJ-TERT fibroblast viability loss – cell-based, RAS-independent, luminescence, dose response (AID 1933); type: functional; conditions: Homo sapiens
[28] = system: BJ; assay: BJ-TERT-LT-ST fibroblast viability loss – cell-based, RAS-independent, luminescence, dose response (AID 1935); type: functional; conditions: Homo sapiens;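 note: BJ fibroblasts immortalized with TERT plus LT and ST oncogenes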
[29] = system: BJ; assay: cells; type: functional, cell-based; conditions: Homo sapiens
[30] = viability loss in HeLa cells – cytotoxicity control for MgcRacGAP inhibitor project, dose response (AID 624300); type: functional
[31] = system: HEK293; assay: cells; conditions: Homo sapiens; remark: listed apart in the source
[32] = Vero E6 cell cytotoxicity, dose response, cytotoxicity control for non-replicating M. tuberculosis project, secondary assay (AID 492998); type: functional, VeroE6; conditions: Vero C1008
[33] = cells; type: functional
[34] = NIH-3T3 fibroblast cytotoxicity, dose response, cytotoxicity control, cell-based, fluorescence, Alamar Blue, secondary assay (AID 2327); type: functional;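 note: NIH-3T3 mouse fibroblasts cultured with fluconazole at 8 µg/mL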
[35] = target: T4, Heat shock factor protein 1 (Mus musculus, UniProt P38532); assay: enhancement of HSF1-driven luciferase signal – cell-based, NIH3T3, luminescence, dose retest, confirmation (AID 435004); type: functional;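 note: stress induced by proteasome inhibitor MG132 added 30 min after compound; luciferase reporter driven by HSF1 response element in NIH3T3 cells; actives raise luminescence as potentiators of the MG132 stress response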
T4 sequence (P38532 whole entry): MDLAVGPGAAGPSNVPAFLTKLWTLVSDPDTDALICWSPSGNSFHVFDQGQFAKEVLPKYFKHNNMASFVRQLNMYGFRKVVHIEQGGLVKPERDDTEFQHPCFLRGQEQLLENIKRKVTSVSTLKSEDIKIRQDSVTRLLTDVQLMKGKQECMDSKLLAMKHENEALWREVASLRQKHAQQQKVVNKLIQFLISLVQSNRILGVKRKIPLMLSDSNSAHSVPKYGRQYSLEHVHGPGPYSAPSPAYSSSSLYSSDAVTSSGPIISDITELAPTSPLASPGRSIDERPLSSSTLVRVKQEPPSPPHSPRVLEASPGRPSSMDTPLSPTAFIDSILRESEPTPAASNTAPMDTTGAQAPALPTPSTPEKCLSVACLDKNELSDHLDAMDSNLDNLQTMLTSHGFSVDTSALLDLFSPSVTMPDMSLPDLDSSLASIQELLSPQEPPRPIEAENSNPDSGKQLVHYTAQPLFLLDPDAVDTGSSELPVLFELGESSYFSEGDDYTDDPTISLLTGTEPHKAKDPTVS

[36] = system: P388/ADR; assay: cells; type: functional; conditions: Mus musculus
[37] = system: Streptococcus; assay: GAS UMAA2166 growth inhibition – luminescence, BacTiterGlo, counter-screen for streptokinase expression inhibitor project, dose response (AID 1915); type: functional, organism-based;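 note: potency for reduction of bacterial viability or growth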
[38] = system: P388; assay: cells; type: functional; conditions: Mus musculus
[39] = microbe, parasite or virus in culture; type: functional; conditions: Mycobacterium tuberculosis
[40] = target: Protein disulfide-isomerase (Homo sapiens, UniProt P07237); assay: inhibition of PDI-mediated insulin reduction – biochemical, turbidity, dry powder samples, set 2, confirmation (AID 652146)

CCOc1ccc(-n2nc3c(S)nnc(C)c3c2C)cc1
IC50 [1]: > 138 µM (inactive) | IC50 [2]: 0.321 µM (active)

COc1ccccc1N1CCN(C(=O)c2cc3c(s2)-c2ccccc2OC3)CC1
IC50 [3]: > 80 µM (inactive)

C=CC/N=c1\scc(C)n1/N=C/c1ccc(O)c(O)c1
CC50 [4]: 19.8 µM (active) | AC50 [5]: 50 µM (active) | IC50 [6]: 17.4 µM (active)

O=C(CCNC(=O)c1cccc(Cl)c1)N[C@@H]1CCCc2ccccc21
AC50 [7]: > 52 µM (inactive) | AC50 [8]: 9.96 µM (active)

CCN1CCN(C2=C(Nc3cccc(Cl)c3)C(=O)c3ccccc3C2=O)CC1
AC50 [9]: 10.1 µM (active) | AC50 [10]: 31.7 µM (active) | AC50 [11]: 2.94 µM (active)

COc1ccc2[nH]c3c(C)c4ccncc4c(C)c3c2c1
EC50 [12]: > 89.3 µM (inactive) | EC50 [13]: 2.51 µM (active) | CC50 [14]: 2.94 µM (active) | EC50 [15]: 2.52 µM (active) | AC50 [16]: 1.93 µM (active) | EC50 [17]: > 3.38 µM (active) | AC50 [18]: 2.86 µM (active) | IC50 [19]: > 54 µM (active) | AC50 [20]: < 11.1 µM (active) | GI50 [21]: 0.245 µM (active) | EC50 [22]: > 91.3 µM (inactive) | CC50 [23]: 8.79 µM (active) | EC50 [24]: > 59.7 µM (inactive) | EC50 [25]: > 150 µM (not active) | EC50 [26]: 0.698 µM (active) | EC50 [27]: 3.65 µM (inconclusive) | EC50 [28]: 4.95 µM (inconclusive) | EC50 [29]: 9.28 µM (inconclusive) | CC50 [30]: 31.2 µM (active) | EC50 [31]: > 59.7 µM (inactive) | CC50 [32]: 0.93 µM (active) | IC50 [33]: 0.37 µM (active) | IC50 [6]: 28.8 µM (active) | EC50 [34]: 4.36 µM (inconclusive) | EC50 [35]: > 260 µM (inconclusive) | GI50 [36]: 0.439 µM (active) | EC50 [37]: 8.86 µM (active) | GI50 [38]: 0.239 µM (active) | CC50 [39]: 0.838 µM (active)

CCOC(=O)C1(CCOC)CCN(Cc2ccc(O)c(Cl)c2)CC1
AC50 [40]: > 30 µM (inactive)
